Laboratory results reported in patent publication US5665721A, “Heterocyclic substituted cyclopentane compounds” (Abbott Laboratories, priority 1995, dated 1997).

Assays:
adenosine kinase [1] = target: adenosine kinase (Homo sapiens, UniProt P55263); test: In vitro inhibition of adenosine kinase activity; assay type: biochemical
From the text: The adenosine kinase to be inhibited can be located in vitro, in situ or in vivo. Where the adenosine kinase is located in vitro, adenosine kinase is contacted with the inhibitor compound, typically by adding the compound to an aqueous solution containing the enzyme, radiolabeled substrate adenosine, magnesium chloride and ATP. The enzyme can exist in intact cells or in isolated subcellular fractions containing the enzyme. The enzyme is then maintained in the presence of the inhibitor for a period of time and under suitable physiological conditions. Means for determining maintained times are well known in the art and depend inter alia on the concentrations of enzyme and the physiological conditions. Suitable physiological conditions are those necessary to maintain adenosine kinase viability and include temperature, acidity, tonicity and the like. Inhibition of adenosine kinase can be performed, by example, according to standard procedures well known in the art (Yamada et at., Comp. Biochem. Physiol. 1982, 71B: 367-372).
In vitro adenosine kinase activity can be measured using any of the standard procedures well known in the art. By way of example, cells containing adenosine kinase, such as IMR-32 human neuroblastoma cells, are cultured in the presence and absence of an inhibitor. Inhibition is measured as the ability to inhibit phosphorylation of endogenous or externally applied ^14 C-adenosine by these cells. The cells can be intact or broken. The specificity of adenosine kinase inhibitory activity is determined by studying the effects of inhibitors on adenosine A1 and A2a receptor binding, adenosine deaminase activity and adenosine transport.
Numerous inhibitor compounds of the present invention were tested in vitro and found to inhibit adenosine kinase activity. The results of some representative studies are shown below in Tables 1 and 2.

adenosine kinase [2] = settings: literature; cited from earlier work

Chain of adenosine kinase (Homo sapiens, UniProt P55263) (P55263 whole entry, species assumed): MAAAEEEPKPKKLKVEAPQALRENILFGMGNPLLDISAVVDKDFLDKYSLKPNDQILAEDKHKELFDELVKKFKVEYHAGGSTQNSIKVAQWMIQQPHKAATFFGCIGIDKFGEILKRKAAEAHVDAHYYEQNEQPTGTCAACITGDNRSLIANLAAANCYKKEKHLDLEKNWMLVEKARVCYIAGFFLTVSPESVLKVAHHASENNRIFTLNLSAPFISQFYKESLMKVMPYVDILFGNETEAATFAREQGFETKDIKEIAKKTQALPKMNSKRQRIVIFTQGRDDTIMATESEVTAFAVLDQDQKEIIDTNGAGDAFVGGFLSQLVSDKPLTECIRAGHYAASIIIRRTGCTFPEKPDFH

Row | IC50 (adenosine kinase [1]; Table 2, in vitro) [nM] | IC50 (adenosine kinase [1]; Table 1, in vitro) [nM] | Structure (SMILES) | also measured
1 | – | 0.08 | Nc1ncnc2c1c(I)cn2[C@@H]1C[C@H](N)[C@@H](O)[C@H]1O [drawing 14 (R4=H2N, R5=NH2, R6=I), N7-((1'R,2'S,3'R,4'S)-2',3'-dihydroxy-4'-amino-cyclopentyl)-4-amino-5-iodo-pyrrolopyrimidine] | –
2 | > 10000 | – | CC(=O)N[C@H]1C[C@@H](n2cc(I)c3c(Cl)ncnc32)[C@H](OC(C)=O)[C@@H]1OC(C)=O [drawing 17 (R5=Cl)] | –
3 | 110 | – | O=C(N[C@H]1C[C@@H](n2cc(I)c3c(Cl)ncnc32)[C@H](O)[C@@H]1O)C(F)(F)F [drawing 18 (R5=Cl, R=CF3CO), N7-((1'R,2'S,3'R,4'S)-2',3'-dihydroxy-4'-(trifluoroacetyl)amino-cyclopentyl)-4-chloro-5-iodo-pyrrolopyrimidine] | –
4 | 350 | – | CC(=O)N[C@H]1C[C@@H](n2cc(I)c3c(Cl)ncnc32)[C@H](O)[C@@H]1O [drawing 18 (R5=Cl, R=CH3CO), N7-((1'R,2'S,3'R,4'S)-2',3'-dihydroxy-4'-(acetyl)amino-cyclopentyl)-4-chloro-5-iodo-pyrrolopyrimidine] | –
5 | 160 | – | CC(=O)N[C@H]1C[C@@H](n2cc(I)c3c(N)ncnc32)[C@H](O)[C@@H]1O [drawing 18 (R5=NH2, R=CH3CO), N7-((1'R,2'S,3'R,4'S)-2',3'-dihydroxy-4'-(acetyl)amino-cyclopentyl)-4-amino-5-iodo-pyrrolopyrimidine] | –
6 | 200 | – | O=C(N[C@H]1C[C@@H](n2cc(I)c3c(O)ncnc32)[C@H](O)[C@@H]1O)C(F)(F)F [drawing 18 (R5=OH, R=CF3CO), N7-((1'R,2'S,3'R,4'S)-2',3'-dihydroxy-4'-(trifluoroacetyl)amino-cyclopentyl)-4-hydroxy-5-iodo-pyrrolopyrimidine] | –
7 | 6300 | – | CC(=O)N[C@H]1C[C@@H](n2cc(I)c3c(Cl)ncnc32)[C@@H]2OC(=O)O[C@@H]21 [drawing 21 (R=CH3CO, R5=Cl), N7-((1'R,2'S,3'R,4'S)-2',3'--O-(2"-oxo-1",3"-dioxalyl)-4'-(acetyl)amino-cyclopentyl)-4-chloro-5-iodo-pyrrolopyrimidine] | –
8 | 4000 | – | CC(=O)N[C@H]1C[C@@H](n2cc(I)c3c(O)ncnc32)[C@@H]2OC(=O)O[C@@H]21 [drawing 21 (R=CH3CO, R5=OH), N7-((1'R,2'S,3'R,4'S)-2',3'--O-(2"-oxo-1",3"-dioxalyl)-4'-(acetyl)amino-cyclopentyl)-4-hydroxy-5-iodo-pyrrolopyrimidine] | –
9 | 2.5 | – | N[C@H]1C[C@@H](n2cc(I)c3c(Cl)ncnc32)[C@@H]2OC(=O)O[C@@H]21 [drawing 21 (R=H, R5=Cl), N7-((1'R,2'S,3'R,4'S)-2',3'--O-(2"-oxo-1",3"-dioxalyl)-4'-amino-cyclopentyl)-4-chloro-5-iodo-pyrrolopyrimidine] | –

The next lines start with the molecule.

Row | Structure (SMILES) | IC50 (adenosine kinase [1]; Table 2, in vitro) [nM] | IC50 (adenosine kinase [1]; Table 1, in vitro) [nM] | also measured
10 | N[C@@H]1C=C[C@H](n2cc(I)c3c(Cl)ncnc32)C1 | – | – | IC50 (adenosine kinase [1]; Table 1, in vitro, single structure): 2.5 nM
11 | O=C(N[C@H]1C[C@@H](n2cc(I)c3c(Cl)ncnc32)[C@H](O)[C@@H]1O)c1cccnc1 | 5 | – | –
12 | NC[C@H]1O[C@@H](n2cnc3c(N)ncnc32)[C@H](O)[C@@H]1O [5'-amino,5'-deoxyadenosine] | – | – | reported to inhibit adenosine kinase (in words) (adenosine kinase [2]): most potent
13 | O[C@@H]1[C@H](O)[C@@H](O)C[C@H]1n1cc(Cl)c2c(Cl)ncnc21 [drawing 13 (R5=Cl, R6=Cl), N7-((1'R,2'S,3'R,4'S)-2',3',4'-trihydroxycyclopentyl)-4,5-dichloro-pyrrolopyrimidine] | – | 90 | –
14 | O[C@@H]1[C@H](O)[C@@H](O)C[C@H]1n1cc(I)c2c(Cl)ncnc21 [drawing 13 (R5=Cl, R6=I), N7-((1'R,2'S,3'R,4'S)-2',3',4'-trihydroxycyclopentyl)-4-chloro-5-iodo-pyrrolopyrimidine] | – | 10 | –
15 | O[C@@H]1[C@H](O)[C@@H](O)C[C@H]1n1cc(-c2ccccc2)c2c(Cl)ncnc21 [drawing 13 (R5=Cl, R6=Ph), N7-((1'R,2'S,3'R,4'S)-2',3',4'-trihydroxycyclopentyl)-4-chloro-5-phenyl-pyrrolopyrimidine] | – | 45 | –
16 | O[C@@H]1[C@H](O)[C@@H](O)C[C@H]1n1cc(C#Cc2ccccc2)c2c(Cl)ncnc21 [drawing 13 (R5=Cl, R6=PhCC), N7-((1'R,2'S,3'R,4'S)-2',3',4'-trihydroxycyclopentyl)-4-chloro-5-phenylacetylenyl-pyrrolopyrimidine] | – | 100 | –
17 | Nc1ncnc2c1c(I)cn2[C@@H]1C[C@H](O)[C@@H](O)[C@H]1O [drawing 13 (R5=NH2, R6=I), N7-((1'R,2'S,3'R,4'S)-2',3',4'-trihydroxycyclopentyl)-4-amino-5-iodo-pyrrolopyrimidine] | – | 13 | –
18 | Nc1ncnc2c1c(-c1ccccc1)cn2[C@@H]1C[C@H](O)[C@@H](O)[C@H]1O [drawing 13 (R5=NH2, R6=Ph), N7-((1'R,2'S,3'R,4'S)-2',3',4'-trihydroxycyclopentyl)-4-amino-5-phenyl-pyrrolopyrimidine] | – | 200 | –
19 | Nc1ncnc2c1c(C#Cc1ccccc1)cn2[C@@H]1C[C@H](O)[C@@H](O)[C@H]1O [drawing 13 (R5=NH2, R6=PhCC), N7-((1'R,2'S,3'R,4'S)-2',3',4'-trihydroxycyclopentyl)-4-amino-5-phenylacetylenyl-pyrrolopyrimidine] | – | 230 | –
20 | Nc1ncnc2c1c(CCc1ccccc1)cn2[C@@H]1C[C@H](O)[C@@H](O)[C@H]1O [drawing 13 (R5=NH2, R6=PhCH2CH2), N7-((1'R,2'S,3'R,4'S)-2',3',4'-trihydroxycyclopentyl)-4-amino-5-((2phenyl)ethyl)-pyrrolopyrimidine] | – | 300 | –
21 | O[C@@H]1[C@H](O)[C@@H](O)C[C@H]1n1cc(I)c2c(Nc3ccccc3)ncnc21 [drawing 13 (R5=NHPh, R6=I), N7-((1'R,2'S,3'R,4'S)-2',3',4'-trihydroxycyclopentyl)-4-(phenyl)amino-5-iodo-pyrrolopyrimidine] | – | 100 | –
22 | O[C@@H]1[C@H](O)[C@@H](O)C[C@H]1n1cc(-c2ccccc2)c2c(Nc3ccccc3)ncnc21 [drawing 13 (R5=NHPh, R6=Ph), N7-((1'R,2'S,3'R,4'S)-2',3',4'-trihydroxycyclopentyl)-4-(phenyl)amino-5-phenyl-pyrrolopyrimidine] | – | 3 | –
23 | O[C@@H]1[C@H](O)[C@@H](O)C[C@H]1n1cc(C#Cc2ccccc2)c2c(C#Cc3ccccc3)ncnc21 [drawing 13 (R5=PhCC, R6=PhCC), N7-((1'R,2'S,3'R,4'S)-2',3',4'-trihydroxycyclopentyl)-4,5-bis-phenylacetylenyl-pyrrolopyrimidine] | – | 15 | –
24 | CN(C)[C@H]1C[C@@H](n2cc(I)c3c(Cl)ncnc32)[C@H](O)[C@@H]1O [drawing 14 (R4=(CH3)2N, R5=Cl, R6=I), N7-((1'R,2'S,3'R,4'S)-2',3'-dihydroxy-4'-(dimethyl)amino-cyclopentyl)-4-chloro-5-iodo-pyrrolopyrimidine] | – | 20 | –
25 | CC(C)(C)OC(=O)N(C(=O)OC(C)(C)C)[C@H]1C[C@@H](n2cc(I)c3c(Cl)ncnc32)[C@H](O)[C@@H]1O [drawing 14 (R4=Boc2N, R5=Cl, R6=I), N7-((1'R,2'S,3'R,4'S)-2',3'-dihydroxy-4'-(bis-t-butoxycarbonylamino)-cyclopentyl)-4-chloro-5-iodo pyrrolopyrimidine] | – | > 1000 | –
26 | CN[C@H]1C[C@@H](n2cc(C)c3c(Cl)ncnc32)[C@H](O)[C@@H]1O [drawing 14 (R4=CH3NH, R5=Cl, R6=CH3), N7-((1'R,2'S,3'R,4'S)-2',3'-dihydroxy-4'-(methyl)amino-cyclopentyl)-4-chloro-5-methyl-pyrrolopyrimidine] | – | 300 | –
27 | N[C@H]1C[C@@H](n2cc(I)c3c(Cl)ncnc32)[C@H](O)[C@@H]1O [drawing 14 (R4=H2N, R5=Cl, R6=I), N7-((1'R,2'S,3'R,4'S)-2',3'-dihydroxy-4'-amino-cyclopentyl)-4-chloro-5-iodo-pyrrolopyrimidine] | – | 0.035 | –
28 | CC(C)(C)OC(=O)N[C@H]1C[C@@H](n2cc(I)c3c(N)ncnc32)[C@H](O)[C@@H]1O [drawing 14 (R4=NHBoc, R5=NH2, R6=I), N7-((1'R,2'S,3'R,4'S)-2',3'-dihydroxy-4'-(t-butoxycarbonylamino)-cyclopentyl)-4-amino-5-iodo-pyrrolopyrimidine] | – | 15 | –
29 | CC(=O)O[C@@H]1[C@H](OC(C)=O)[C@@H](OC(C)=O)C[C@H]1n1cc(-c2ccccc2)c2c(Cl)ncnc21 [drawing 16 (R5=Cl, R6=Ph), N7-((1'R,2'S,3'R,4'S)-2',3',4'-triacetoxycyclopentyl)-4-chloro-5-phenyl-pyrrolopyrimidine] | > 100000 | – | –
30 | CC(=O)O[C@@H]1[C@H](OC(C)=O)[C@@H](OC(C)=O)C[C@H]1n1cc(C#Cc2ccccc2)c2c(C#Cc3ccccc3)ncnc21 [drawing 16 (R5=PhCC, R6=PhCC), N7-((1'R,2'S,3'R,4'S)-2',3',4'-triacetoxycyclopentyl)-4,5-bis-phenylacetylenyl-pyrrolopyrimidine] | > 10000 | – | –
31 | CC(C)(C)OC(=O)N[C@H]1C[C@@H](n2cc(I)c3c(N)ncnc32)[C@H](O)[C@@H]1O [drawing 18 (R5=NH2, R=NHBoc), N7-((1'R,2'S,3'R,4'S)-2',3'-dihydroxy-4'-(t-butoxycarbonylamino)-cyclopentyl)-4-amino-5-iodo-pyrrolopyrimidine] | 150 | – | –
